Legend:
[1] = Potential detection (zeta potential); format: physicochemical
Particle size detection = format: physicochemical
Excerpt: 1.2 Particle Size Detection

glioma GL261 cells = test: Cytotoxicity experiment (CCK8); format: cell-based; settings: 1.172-150 μg/mL, 4 h drug then 20 h culture
Description: Gl261 cells in logarithmic growth phase are uniformly inoculated into sterile 96-well plates with 2×10^3 cells per well, and no cells are seeded around the plates, then 100 μL […] is added into each well and cultured under the condition of 37° C. and 5% CO2 for 24 h; remove the culture medium and add 100 μL of drug-containing medium (concentration gradient set at […], 75.000 μg/mL, 37.500 μg/mL, 18.750 μg/mL, 9.375 μg/mL, 4.688 μg/mL, 2.344 μg/mL, and 1.172 μg/mL), the drug-containing medium is removed after culture for 4 h, and 100 μL of medium is added to each well for further culture for 20 h. The culture medium is removed, and culture medium containing 10% CCK8 is added. After incubation for 1 h, the absorbance is measured with a microplate reader, and the cell viability is determined by the following formula […].

COc1cc(/C=C/C(=O)CC(=O)/C=C/c2ccc(O)c(OC)c2)ccc1O [Free Curcumin, Curcumin]
Average zeta potential [1]: −36.5 mv | PDI (Particle size detection): 0.545 | Hydrodynamic diameter (Particle size detection; 0.0309 g curcumin+10 ml water suspension): 4.053 μm | toxicity to GL261 cells (glioma GL261 cells): no obvious toxicity

— patent US20220211795A1 (Chenland Nutritionals Inc., priority 2021, published 2022)
